Data set [1] deals with xenografted Panc-1 human pancreatic tumors. Briefly: Human pancreatic cancer xenograft mouse model, monotherapy or combination with gemcitabine (Example 7). To be noted: for Tumor re-growth after termination of treatment: 19 days post-treatment observation. Type of data set: in vivo, male athymic nude (Ncr) mice. The protocol: Human pancreatic cancer Panc-1 cells (2×10^6) are implanted subcutaneously into male athymic nude (Ncr) mice. […] The combination therapy group receives β-lapachone and gemcitabine on the same day in each treatment. Following treatment, the animals are observed for an additional 19 days. Tumors are measured throughout the treatment and post-treatment periods.

Data set [2] shares this test system. Type of data set: in vivo, athymic female nude mice (Ncr). To be noted: 5 treatments. The procedure: Athymic female nude mice (Ncr) are inoculated subcutaneously with 4×10^6 human Panc-1 pancreatic cancer cells, and the tumors are allowed to grow to […] in size. The animals are randomized into three groups. […] Mean tumor volume is then analyzed.
Data set [3] concerns E2F-1 protein in Paca-2 cells. Briefly: Western blot of E2F-1 protein expression. Type of data set: cell-based, human. The protocol:
Cells are harvested and whole cell lysates were prepared and resolved by SDS/PAGE, then Western blots are prepared using E2F-1 antibody obtained from Santa Cruz Biotechnology (Santa Cruz, Calif.) and an enhanced chemiluminescence assay system (Amersham Pharmacia).

In the next data set the test system is normal cells. The data set can be described thus: In vitro experiments using cell lines of various tissue origins. It counts as cell-based.

From patent publication US20050192360A1, “Method of treatment of pancreatic cancer” (priority 1999, published 2005) come the findings set out here.

Counter-ions that a name gives are not always drawn. Like-named read-outs stand apart in the source and are kept apart here.

Regarding `Nc1ccn([C@@H]2O[C@H](CO)[C@@H](O)C2(F)F)c(=O)n1` [gemcitabine, 2′-deoxy-2′,2′-difluorocytidine monohydrochloride (β-isomer), reference compound], the “Reduction of tumor size at termination of treatment” value in data set [1] (gemcitabine 120 mg/kg i.p., ten treatments every three days) was 30-40%. In addition, the “Tumor re-growth after termination of treatment” value in data set [1] (gemcitabine 120 mg/kg i.p.) came out at 400%.
Take `CC1(C)CCC2=C(O1)c1ccccc1C(=O)C2=O` [β-lapachone, 3,4-dihydro-2,2-dimethyl-2H-naphtho[1,2-b]pyran-5,6-dione]: the Mean tumor volume entry in data set [2] (40 mg/kg intraperitoneally every three days) and in data set [2] (60 mg/kg intraperitoneally every three days) was “reduced” each time. For the same compound, the “Concentration at which E2F-1 protein is induced (lowest concentration tested)” value in data set [3] (0.5 hours exposure) came out at 0.5 µM. In data set [3] (0.5 hours exposure, 0.5, 2 or 4 μM), the “E2F-1 protein expression (Western blot)” value is “upregulated”. Further, in data set [1] (β-lapachone alone 40 mg/kg i.p., ten treatments every three days), the “Tumor regression at termination of treatment” value is reported as 30-40%. Further, the “Tumor re-growth after termination of treatment” value in data set [1] (β-lapachone alone 40 mg/kg i.p.) is on record as “no significant re-growth”. Further, the “Toxicity to normal cells in vitro” value in the data set with normal cells is reported as “relatively non-toxic”.
